The results in this text go back to PubChem BioAssay AID489024 (Sanford-Burnham Center for Chemical Genomics, 2010).

Activity calls are given as the source filed them.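 The calls were made as follows: active = compounds whose mean EC50, the dose giving half the maximal reporter activation, is at or below a set limit; inactive = the rest.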 Where only a bound is given, the exact number is not on record here.

The target of the experiment is CHO-CHOP luciferase reporter, UPR activation, luminescence. Description: activators of PERK-eIF2a-CHOP UPR arm, confirmation, CHO-CHOP cells, luciferase luminescence (AID 489024).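 Also: compounds added alone to reporter cells with no tunicamycin stress co-treatment.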

In the case of `CC(C)N1C/C(=C/c2ccsc2)C(=O)/C(=C/c2ccsc2)C1`, the EC50 – broadly, the concentration needed to bring the measured effect to its halfway point – was 7.08 µM. Consider `Cc1ccc(-c2cc(-c3ccc(C)cc3)[n+](-c3ccccc3)c(-c3ccc(C)cc3)c2)cc1`, for which the EC50 is 3.77 µM.

Regarding `CS(=O)(=O)c1nc(-c2ccccc2)cc(-c2ccccc2)c1C#N`, the EC50 is 15.3 µM.

In the case of `Cc1ccc(Sc2ccc(/C=C3/C(=O)NN(c4ccccc4)C3=O)o2)cc1`, the EC50 entry was “inactive”. For the compound `O=S(=O)(CCSc1nc2ccccc2s1)c1nc2ccccc2s1`, the EC50 was 11.6 µM. As to `Cc1cc(C(=O)CCl)c(C)n1CCc1ccc(F)cc1`, the EC50 is 7.77 µM.

Regarding `CC1(C)CC(=O)C2=C(C1)Oc1nc3ccccc3cc1C2C(C#N)C#N` (stereo not drawn), the EC50 is > 80 µM (inactive). Regarding `COc1ccc(-n2c(C)cc(C(=O)CCl)c2C)cc1`, the EC50 was 7.13 µM.

Take `Oc1ccc(/C=N/Nc2cc(N3CCCC3)nc(N3CCCC3)n2)cc1O`: the EC50 is 13.2 µM.

Take `O=C(/C=C/Sc1ccccc1)c1ccccc1`: the EC50 was 6.98 µM. With `COc1ccc(Cn2c(SCc3ccc(C)cc3)nc3cc(OC)c(OC)cc3c2=N)cc1Cl`, the EC50 is 14 µM. For `Oc1ccc(CN2CCC(Cc3ccccc3)CC2)c2cccnc12`, the EC50 was 5.4 µM. With `COc1ccc(N=c2oc3c(OC)cccc3cc2C(=O)NCc2ccco2)cc1OC`, the EC50 was > 80 µM (inactive). In the case of `CS(=O)(=O)Oc1ccc2c(c1)O/C(=C\C=C\c1ccccc1)C2=O`, the EC50 entry is “inactive”. For `CCOC(=O)c1cnc(-n2nc(C)cc2C)nc1Nc1ccc(N(C)C)cc1`, the 50% effective concentration (EC50) is 16.7 µM.

On to `CC1(C)CC(=O)C(=Cc2cn(-c3ccccc3)nc2-c2ccc(Cl)cc2)C(=O)C1`, for which the EC50 was 6.07 µM. `COc1ccc(N=c2oc3ccc(OC)cc3cc2-c2nc3ccccc3[nH]2)cc1`: the 50% effective concentration (EC50) is 11.7 µM. With `Cc1cc(C)c2c(c1)/C(=c1/sc3n(c1=O)CN(c1ccccc1)CN=3)C(=O)N2`, the EC50 was 11.6 µM.

Consider `O=C(NCc1ccccc1Cl)c1cccc2c1C(=O)c1ccc(-c3ccc(OC(F)(F)F)cc3)cc1S2(=O)=O`, for which the EC50 was > 80 µM (inactive). On to `COc1cc(C(Nc2ccccn2)c2ccc3ccc(C)nc3c2O)cc(OC)c1O` (stereo not drawn), for which the EC50 was 6.83 µM. For the compound `COc1cc(C(=O)Oc2c(CN3CCOCC3)cc(Cl)c3cccnc23)cc(OC)c1OC`, the EC50 result is “inactive”. On to `Cc1nn(Cc2c(Cl)cccc2Cl)c(C)c1NC(=O)c1sc2ccccc2c1Cl`, for which the EC50 entry is “inactive”. With `COCc1ccc(O)c2ncccc12`, the EC50 was 15.1 µM. For `CC1(C)C=Cc2c(c3c(c4c(=O)c(-c5ccc(O)cc5)coc24)OC(C)(C)CC3)O1`, the EC50 was 14.5 µM. Regarding `COc1ccc(C(=O)NCC(=O)N/N=C/c2ccc([N+](=O)[O-])o2)cc1OC`, the EC50 was > 80 µM (inactive).

As for `Cc1cccc(CS(=O)(=O)c2ncc(Cl)c(C(=O)Nc3ccc(F)cc3)n2)c1`, the EC50 is 9.1 µM. In the case of `O=C(c1ccc(Cl)cc1)C(CN1CCCC1)c1ccccc1` (stereo not drawn), the EC50 is 14.3 µM. On to `S=C1SCN(Cc2ccccn2)CN1Cc1ccco1`, for which the EC50 was > 80 µM (inactive).

Consider `COc1ccc(N=Nc2ccc(O)c3ncccc23)cc1`, for which the 50% effective concentration (EC50) was 7.89 µM. As for `O=C(CCN1C(=O)C2C3C=CC(C4CC34)C2C1=O)Oc1cccc2cccnc12` (stereo not drawn), the EC50 was 11.2 µM. As to `Cc1cnc(NC(=O)c2cc(S(=O)(=O)N(C)C)ccc2N2CCCC2)s1`, the EC50 was 6.42 µM.

Consider `C[C@@H](NC(=O)c1coc(=O)c(Br)c1)c1ccccc1`, for which the EC50 was 9.34 µM. Next, `COc1ccc(-c2oc(NC(=O)CCl)c(C#N)c2-c2ccc(OC)cc2)cc1`: 12.9 µM; `COc1ccc(C(=O)C(CN2CCOCC2)c2ccccc2)cc1` (stereo not drawn): “inactive”; `COc1ccc(NC(=O)c2nc(S(=O)(=O)Cc3cccc(C)c3)ncc2Cl)c(OC)c1`: 11.5 µM. For `COc1ccc(C2Nc3ccc4ccccc4c3-c3c2c(=O)oc2ccccc32)cc1` (stereo not drawn), the EC50 is > 80 µM (inactive).

As for `CCOC(=O)c1sc(NC(=S)NC(=O)c2ccccc2)c(C(=O)OCC)c1C`, the EC50 is > 80 µM (inactive).

`Oc1ccc(/C=N/N2CCCCC2)cc1O`: the EC50 result is “inactive”.

As to `O=C(CCl)Nc1cccc(CP(=O)(c2ccccc2)c2ccccc2)c1`, the EC50 is > 80 µM (inactive). With `OCCNc1nc(Nc2ccc(Cl)c(Cl)c2)nc2ccccc12`, the 50% effective concentration (EC50) was 11.7 µM. For `Cc1ccc(C)c(NC(=S)c2ccccn2)c1`, the EC50 entry is “inactive”.

Consider `CCc1ccc(N2C(=O)NC(=O)/C(=C\C=C\c3ccco3)C2=O)cc1`, for which the EC50 was 7.33 µM.

Consider `CCOC(=O)c1ccc(-c2ccc(/C=N/NC(=O)CN(c3cccc(C)c3)S(C)(=O)=O)o2)cc1`, for which the EC50 was 20 µM. Turning to `N#CC(C#N)=C1C=CC=CN1/C(=C\c1ccccc1)C(=O)c1cccs1`, the EC50 was > 80 µM (inactive). With `CC(C)(C)C1=CC(=O)C(=O)C(C(C)(C)C)=C1` the figure was 7.59 µM; with `Cc1ccc(C(=O)/C=C/C(=O)c2ccc(C)cc2)cc1`, 8.35 µM; with `COc1ccc(/C=C/C(=O)c2ccc([N+](=O)[O-])o2)cc1`, 6.65 µM. With `FC(F)(F)c1nnc(-c2ccccc2)nc1Sc1ccccc1`, the EC50 was 8.09 µM.

Regarding `Cc1ccc(-n2nc3cc(C)c(NC(=S)NC(=O)/C=C/c4ccco4)cc3n2)cc1`, the EC50 was 16.2 µM. In the case of `CC(C)(C)N1CSC(=S)N(Cc2ccccc2)C1`, the EC50 was 10.2 µM. Regarding `CC(=O)c1ccc(NC(=O)COC(=O)c2ccccc2N=Nc2ccc(N(C)C)cc2)cc1`, the EC50 was > 80 µM (inactive). Take `FC(F)(F)c1nnc2c(Sc3ccccc3)nc3ccc(Cl)cc3n12`: the EC50 is 3.97 µM. `CN(C)CC(CCC(CN(C)C)C(O)(c1ccccc1)c1ccccc1)C(O)(c1ccccc1)c1ccccc1` (stereo not drawn): the EC50 was 7.9 µM.

For `COc1ccc(CCNC(=O)c2coc(=O)c(Br)c2)cc1`, the EC50 was 7.26 µM. On to `O=C(NCc1cccnc1)/C(=C/c1ccc(-c2ccc(Cl)cc2)o1)S(=O)(=O)c1ccccc1`, for which the EC50 was 6.18 µM. For `Cc1ccccc1CS(=O)(=O)c1ncc(Cl)c(C(=O)Nc2ccc(F)cc2)n1`, the EC50 was > 80 µM (inactive). Regarding `COc1ccccc1-c1nnc(Nc2nc3c(OC)cccc3s2)o1`, the EC50 is 2.48 µM. For the compound `Cc1ccc(NC(=O)Cn2ncc(Cl)c(Cl)c2=O)cc1S(=O)(=O)N1CCCCC1`, the EC50 was 6.45 µM. For the compound `CSc1nnc(NC(=O)c2nc(S(=O)(=O)Cc3ccc(C)cc3)ncc2Cl)s1`, the EC50 is 13.6 µM. On to `Cc1ccc(-c2nnc(-c3ccc(NC(=O)c4cccs4)cc3)o2)cc1`, for which the EC50 is 16 µM. Next, `Oc1ccc(CN2CCc3ccccc3C2)c2cccnc12`: 13.8 µM; `COc1ccc(-c2cc(=O)oc3c(C)c(OC(=O)c4cccs4)ccc23)cc1`: “inactive”; `COc1ccc(/C=C/c2nc3cc(-c4ccccc4)ccc3o2)cc1O`: 12.7 µM.

Take `CCOC(=O)C(=Cc1ccc(OCc2ccc([N+](=O)[O-])cc2)c(OC)c1)C(=O)OCC`: the EC50 is 6.51 µM. For `CC(=O)Oc1ccc(OC(C)=O)c(SCCCCCN2CCOCC2)c1`, the EC50 was 16.1 µM. Take `CC(C)N=c1scc(-c2cccs2)n1/N=C/c1ccc(O)c(O)c1O`: the EC50 was 11.6 µM. Take `Cc1cc(C(=O)CCl)c(C)n1CCc1ccccc1`: the EC50 was 7.91 µM.

Regarding `O=C(NCCc1ccccc1)c1coc(=O)c(Br)c1`, the EC50 is 7.83 µM.
